Values quoted from earlier work as cited in article PMC6768323, “Adverse Maternal, Fetal, and Postnatal Effects of Hexafluoropropylene Oxide Dimer Acid (GenX) from Oral Gestational Exposure in Sprague-Dawley Rats” (Environmental Health Perspectives, 2019).
Read-outs that look alike come from different tables or passages of the source.

Test system: rat
Settings: cited from earlier work

Compound: O=S(=O)(O)C(F)(F)C(F)(F)C(F)(F)C(F)(F)C(F)(F)C(F)(F)C(F)(F)C(F)(F)F [PFOS, perfluorooctane sulfonate]
- dose with increased neonatal mortality (ref Lau et al. 2003): ≥ 3 mg/kg
- dose with lower pup body weights (ref Lau et al. 2003): ≥ 2 mg/kg
- dose with neonatal mortality (ref Luebker et al. 2005a, 2005b): ≥ 1.6 mg/kg
- dose with lower pup body weights (ref Luebker et al. 2005b): ≥ 0.4 mg/kg
